In publication PMC8448864, “Prolyl isomerase Pin1 plays an essential role in SARS-CoV-2 proliferation, indicating its possibility as a novel therapeutic target” (Scientific Reports, 2021):
Like-named read-outs stand apart in the source and are kept apart here.

Key:
FKBP = tested on: FKBP; set-up: method as in PMID 25849135; details: cited from earlier work
SARS-CoV-2 [1] = test: microbe, parasite or virus in culture; type: cell-based; details: for EC50: calculated using virus production at different drug concentrations
cyclophilin = tested on: cyclophilin; set-up: method as in PMID 25849135; details: cited from earlier work
SARS-CoV-2 [2] = test: Membrane fusion (CPE, syncytium formation) and fusion index of infected VeroE6/TMPRSS2 cells; type: cell-based; details: for Membrane fusion (CPE caused by viral infection): MOI 0.01, 24 h
Experimental: Figure 2 Pin1 inhibitor H-77 inhibits SARS-CoV-2 proliferation in a concentration-dependent manner. VeroE6/TMPRSS2 cells were pretreated with the indicated concentrations of H-77 for 2 h, and were subjected to SARS-CoV-2 infection (MOI of 0.01) followed by incubation for 24 h in the presence of the same concentrations of H-77. (A) Western blotting of cell lysates (Duplicate in the figure) with SARS-CoV-2 N, Pin1, and actin antibodies. Full-length blots are presented in Supplementary Fig. 4. (B) vRNA copies contained in 5 µL of the supernatant were quantified by RT-qPCR using authorized SARS-CoV-2 N primers (n = 3). (C) Fusion index calculated by counting numbers of cells and nuclei of infected cells after Giemsa straining. Approximately 100 nuclei and cell number per field were counted for each of five fields. Error bars indicate standard deviation. *P < 0.05, **P < 0.01, Mann–Whitney U test, compared with 0 µM (DMSO). (D) Representative images of SARS-CoV-2-infected VeroE6/TMPRSS2 cells at 24 h post-infection with the indicated concentrations of H-77.
The cells were then washed with PBS, fixed with methanol, and stained with Giemsa staining solution. The fusion index was calculated as [1-(number of cells/number of nuclei)] as described previously. Approximately 100 nuclei and cell number per field were counted, and the average fusion index of five fields was calculated.

Pin1 = tested on: Pin1; set-up: method as in PMID 25849135; details: cited from earlier work
recombinant Pin1 protein = recombinant Pin1 protein (Homo sapiens, UniProt Q13526); test: In vitro PPIase assay using recombinant Pin1 protein (method of Janowski et al., Eurofins Selcia); type: biochemical; details: for inhibition at 20 µM: concentration 20 µM; for inhibition at 2 µM: concentration 2 µM
SARS-CoV-2 [3] = type: cell-based; details: for SARS-CoV-2 proliferation: MOI 0.01, harvested 24 h after infection
[4] = Severe acute respiratory syndrome coronavirus 2, VeroE6/TMPRSS2, read-out: EC50 (50% effective concentration, SARS-CoV-2 proliferation), VeroE6/TMPRSS2 cells
[5] = Severe acute respiratory syndrome coronavirus 2, VeroE6/TMPRSS2 cells, read-out: EC50 (50% effective concentration, SARS-CoV-2 proliferation)
[6] = 10 µM from 2 h before infection, 24 h after infection

Sequence of recombinant Pin1 protein (Q13526 whole entry, species assumed): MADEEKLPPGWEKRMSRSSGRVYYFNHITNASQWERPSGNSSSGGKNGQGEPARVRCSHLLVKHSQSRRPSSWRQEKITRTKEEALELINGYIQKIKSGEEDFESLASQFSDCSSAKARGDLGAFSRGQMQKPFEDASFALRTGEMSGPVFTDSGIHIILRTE

CC1=C(/C=C/C(C)=C/C=C/C(C)=C/C(=O)O)C(C)(C)CCC1 [ATRA, all-trans retinoic acid, reference compound]
Activity of FKBP (FKBP): does not affect | EC50 (SARS-CoV-2 [1]; [4]): 17.9 µM | SARS-CoV-2 protein and viral RNA levels (SARS-CoV-2 [1]; concentration-dependent, pretreated 2 h, MOI 0.01, 24 h): marked reductions | Activity of cyclophilin (cyclophilin): does not affect | CPE of SARS-CoV-2 (SARS-CoV-2 [2]; VeroE6/TMPRSS2 cells): alleviated | Activity of Pin1 (Pin1): inhibits

O=C(Nc1ccc(OCc2ccccc2)cc1C(=O)O)c1cccc(Oc2ccccc2)c1 [H-363]
EC50 (SARS-CoV-2 [1]; [5]): 6.3 µM | inhibition at 20 µM (recombinant Pin1 protein): 82%

O=C(Nc1ccc(OCc2ccccc2)cc1C(=O)O)c1ccc2ccccc2c1 [H-77]
SARS-CoV-2 proliferation (SARS-CoV-2 [3]; 10 µM added 2 h after infection): almost completely blocked | SARS-CoV-2 proliferation (SARS-CoV-2 [3]; 10 µM added 6 h after infection): weaker but still significant inhibitory effect | Amount of genomic RNA released from the cells (vRNA in supernatant) (SARS-CoV-2 [3]; [6]): significantly reduced | Intracellular viral N mRNA (SARS-CoV-2 [3]; [6]): significantly reduced | EC50 (SARS-CoV-2 [1]; [4]): < 5 µM | EC50 (SARS-CoV-2 [1]; read-out: EC50 (50% effective concentration, SARS-CoV-2 proliferation), VeroE6/TMPRSS2 cells): 3.2 µM | inhibition at 2 µM (recombinant Pin1 protein): 67% | inhibition at 20 µM (recombinant Pin1 protein): 82% | Membrane fusion (CPE caused by viral infection) (SARS-CoV-2 [2]; concentrations above 7.5 μM): almost absent | Membrane fusion (CPE caused by viral infection) (SARS-CoV-2 [2]; drug concentration increased to 5 μM): less apparent

O=C(O)[C@@H](Cc1ccc2ccccc2c1)OC(=O)n1c2ccccc2c2ccccc21 [H-175]
EC50 (SARS-CoV-2 [1]; [5]): 12 µM | inhibition at 20 µM (recombinant Pin1 protein): 89%

O=C(O)c1cc(NC(=O)n2c3ccccc3c3ccccc32)cc(NC(=O)n2c3ccccc3c3ccccc32)c1 [H-596]
EC50 (SARS-CoV-2 [1]; [5]): 5.2 µM | inhibition at 1 µM (recombinant Pin1 protein; concentration 1 µM): 13% | inhibition at 10 µM (recombinant Pin1 protein; concentration 10 µM): 101%

O=C(Nc1ccc(OCc2ccc3ccccc3c2)cc1C(=O)O)c1ccc2ccccc2c1 [H-371]
EC50 (SARS-CoV-2 [1]; [5]): 4.2 µM | inhibition at 2 µM (recombinant Pin1 protein): 80%

O=C1C=CC(=O)c2c(O)cccc21 [Juglone]
Cell survival (VeroE6/TMPRSS2 cells): unable to survive
